Source: patent publication US10787436B2, “Inhibitors of cyclin-dependent kinase 7 (CDK7)” (Dana-Farber Cancer Institute, Inc., priority 2012, dated 2020)

What follows are compounds tested against CDK7 (Homo sapiens (Human), UniProt P50613) (assay: In vitro inhibitory activity against CDK7 (Table 1)).
Format: biochemical
Experimental: In vitro kinase assays with immunoprecipitated proteins (or recombinant CAK complexes) were performed as follows. Kinase reactions were performed in 25 μL of final volume of reaction buffer (50 mM Hepes, pH 7.5, 150 mM NaCl, 10 mM MgCl2, 5% glycerol, 25 μM ATP, and 10 μCi of [γ-32P]ATP). Each reaction contained 1 μg of RNAP II. Incubation was at 30° C. for 30-45 min. Reactions were terminated by addition of 5 μL of 5×SDS-PAGE sample buffer and incubated at 95° C. for 5 min. Reactions were analyzed by SDS-PAGE, and the dried gel was exposed to film or PhosphorImager plate.

Sequence of CDK7 (P50613 whole entry, looked up): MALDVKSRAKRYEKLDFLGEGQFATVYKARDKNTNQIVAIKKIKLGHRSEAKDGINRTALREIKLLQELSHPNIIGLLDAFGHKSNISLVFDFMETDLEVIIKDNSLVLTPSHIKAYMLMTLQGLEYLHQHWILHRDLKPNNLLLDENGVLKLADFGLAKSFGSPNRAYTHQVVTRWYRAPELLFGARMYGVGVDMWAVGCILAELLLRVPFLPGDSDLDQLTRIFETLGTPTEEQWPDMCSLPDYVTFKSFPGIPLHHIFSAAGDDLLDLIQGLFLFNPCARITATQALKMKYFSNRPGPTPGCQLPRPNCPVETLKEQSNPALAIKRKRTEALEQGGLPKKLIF
Sequence of CDK7 (P51946 whole entry partner, looked up): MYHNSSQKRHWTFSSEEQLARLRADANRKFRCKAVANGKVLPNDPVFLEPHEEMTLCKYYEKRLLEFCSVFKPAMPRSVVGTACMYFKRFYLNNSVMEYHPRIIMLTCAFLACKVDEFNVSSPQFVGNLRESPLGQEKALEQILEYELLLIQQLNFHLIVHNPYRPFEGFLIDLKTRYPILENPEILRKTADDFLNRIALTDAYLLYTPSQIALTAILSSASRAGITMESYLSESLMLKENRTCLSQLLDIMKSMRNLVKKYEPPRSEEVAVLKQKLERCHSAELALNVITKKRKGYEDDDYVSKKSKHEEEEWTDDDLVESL
Sequence of CDK7 (P51948 whole entry partner, looked up): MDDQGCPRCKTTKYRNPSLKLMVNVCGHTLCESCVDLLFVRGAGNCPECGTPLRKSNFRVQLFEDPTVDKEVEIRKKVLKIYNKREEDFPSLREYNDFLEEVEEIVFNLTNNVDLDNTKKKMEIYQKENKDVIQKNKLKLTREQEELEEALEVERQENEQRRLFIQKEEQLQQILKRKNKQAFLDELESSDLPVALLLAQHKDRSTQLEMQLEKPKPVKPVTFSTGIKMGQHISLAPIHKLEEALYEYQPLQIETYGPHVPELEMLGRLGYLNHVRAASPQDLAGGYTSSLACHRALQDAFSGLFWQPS

Row | Compound | IC50 [nM]
1 | CN(C)C/C=C/C(=O)Nc1cccc(C(=O)Nc2cccc(Nc3ncc(Cl)c(-c4c[nH]c5ccccc45)n3)c2)c1 [Formula I-18] | 13.9
2 | Cc1cnc(Nc2cccc(NC(=O)c3ccc(NC(=O)/C=C/CN(C)C)cc3)c2)nc1-c1c[nH]c2ccccc12 [Formula I-19] | 15.7
3 | CCc1cnc(Nc2cccc(NC(=O)c3ccc(NC(=O)/C=C/CN(C)C)cc3)c2)nc1-c1c[nH]c2ccccc12 [Formula I-21] | 22.7
4 | Cc1ccc(NC(=O)c2ccc(NC(=O)/C=C/CN(C)C)cc2)cc1Nc1ncc(Cl)c(-c2c[nH]c3ccccc23)n1 [Formula I-22] | 32.6
5 | C=CC(=O)Nc1ccc(C(=O)Nc2cccc(Nc3ncc(Cl)c(-c4c[nH]c5ccccc45)n3)c2)cc1 [Formula I-24] | 40
6 | CN(C)C/C=C/C(=O)Nc1ccc(C(=O)Nc2ccc(Cl)c(Nc3ncc(Cl)c(-c4c[nH]c5ccccc45)n3)c2)cc1 [Formula I-25] | 87.8
7 | CN(C)C/C=C/C(=O)Nc1ccc(C(=O)Nc2cccc(Nc3ncc(C4CC4)c(-c4c[nH]c5ccccc45)n3)c2)cc1 [Formula I-26] | 184
8 | CN(C)C/C=C/C(=O)Nc1ccc(C(=O)Nc2cccc(Nc3ncc(Cl)c(-n4cnc5ccccc54)n3)c2)cc1 [Formula I-27] | 201
9 | CN(C)C/C=C/C(=O)Nc1ccc(C(=O)Nc2cccc(Nc3ncc(Cl)c(-c4cn(C)c5ccccc45)n3)c2)cc1 [Formula I-28] | 238
10 | CN(C)C/C=C/C(=O)Nc1ccc(C(=O)Nc2cccc(Nc3ncc(Cl)c(-c4cnc5[nH]ccc5c4)n3)c2)cc1 [Formula I-29] | 288
11 | CN(C)C/C=C/C(=O)Nc1ccc(C(=O)Nc2cccc(Nc3ncc(Cl)c(-c4cccc5[nH]ccc45)n3)c2)cc1 [Formula I-30] | 347

The remaining lines, values ahead:

Row | IC50 [nM] | Compound
12 | 416 | CN(C)C/C=C/C(=O)Nc1ccc(C(=O)Nc2cccc(Nc3ncc(Cl)c(-c4cccc5[nH]ccc45)n3)c2)cc1 [Formula I-31]
13 | 1180 | CN(C)C/C=C/C(=O)Nc1ccc(C(=O)Nc2cccc(Nc3ncc(Cl)c(-c4ccc5cc[nH]c5c4)n3)c2)cc1 [Formula I-32]
14 | 1420 | CN(C)C/C=C/C(=O)Nc1ccc(C(=O)Nc2cccc(Nc3nc(-c4c[nH]c5ccccc45)c4ccccc4n3)c2)cc1 [Formula I-33]
15 | 4750 | CN(C)C/C=C/C(=O)Nc1ccc(C(=O)Nc2cccc(Nc3ncc(Cl)c(-c4cc5ccccc5[nH]4)n3)c2)cc1 [Formula I-34]
16 | 557 | CCSC(=O)CCNc1ccc(C(=O)Nc2cccc(Nc3ncc(Cl)c(-c4c[nH]c5ccccc45)n3)c2)cc1 [Formula I-37]
17 | 3010 | CN(C)C/C=C/C(=O)Nc1ccc(C(=O)Nc2cccc(Nc3ncc(Cl)c(-c4c(-c5ccccc5)nn5ccccc45)n3)c2)cc1 [Formula I-38]
18 | 1350 | Cc1nc(Nc2cccc(NC(=O)c3ccc(NC(=O)/C=C/CN(C)C)cc3)c2)nc(-c2c[nH]c3ccccc23)c1C [Formula I-39]
19 | 3470 | Cc1cccc2[nH]cc(-c3ccnc(Nc4cccc(NC(=O)c5ccc(NC(=O)/C=C/CN(C)C)cc5)c4)n3)c12 [Formula I-40]
20 | 809 | Cc1cnc(Nc2cccc(NC(=O)c3ccc(NC(=O)/C=C/CN(C)C)cc3)c2)nc1-c1c[nH]c2cccc(C)c12 [Formula I-41]
21 | 35.7 | CN(C)C/C=C/C(=O)Nc1ccc(C(=O)Nc2cccc(Nc3ncc(C(F)(F)F)c(-c4c[nH]c5ccccc45)n3)c2)cc1 [Formula I-42]
22 | 36.2 | CN(C)C/C=C/C(=O)NCc1ccc(C(=O)Nc2cccc(Nc3ncc(Cl)c(-c4c[nH]c5ccccc45)n3)c2)cc1 [Formula I-43]
23 | 391 | CN(C)C/C=C/C(=O)Nc1ccc(C(=O)Nc2cccc(Nc3nccc(-c4c[nH]c5ccccc45)n3)c2)cc1 [Formula I-44]
24 | 92.3 | Cc1nc(C)c(-c2nc(Nc3cccc(NC(=O)c4ccc(NC(=O)/C=C/CN(C)C)cc4)c3)ncc2Cl)s1 [Formula I-50]
